Patent US20230098111A1, “COMPOSITIONS AND METHODS TO TREAT NEUROLOGICAL DISEASES” (University of Southern California, priority 2020, published 2023)
Entries after “also recorded” stand apart in the source; their conditions may differ.

Assays:
[1] = molecular target: T1, Neutral Sphingomyelinase 2 (Mus musculus, UniProt Q9JJY3); conditions: mice overexpressing TDP-43; cited from earlier work
T1 construct: In mice overexpressing TDP-43, neurons secrete exosomes containing phospho-TDP-43; host or cells: neurons of TDP-43-overexpressing mice (endogenous enzyme, in vivo)
T1 sequence (Q9JJY3 1-655): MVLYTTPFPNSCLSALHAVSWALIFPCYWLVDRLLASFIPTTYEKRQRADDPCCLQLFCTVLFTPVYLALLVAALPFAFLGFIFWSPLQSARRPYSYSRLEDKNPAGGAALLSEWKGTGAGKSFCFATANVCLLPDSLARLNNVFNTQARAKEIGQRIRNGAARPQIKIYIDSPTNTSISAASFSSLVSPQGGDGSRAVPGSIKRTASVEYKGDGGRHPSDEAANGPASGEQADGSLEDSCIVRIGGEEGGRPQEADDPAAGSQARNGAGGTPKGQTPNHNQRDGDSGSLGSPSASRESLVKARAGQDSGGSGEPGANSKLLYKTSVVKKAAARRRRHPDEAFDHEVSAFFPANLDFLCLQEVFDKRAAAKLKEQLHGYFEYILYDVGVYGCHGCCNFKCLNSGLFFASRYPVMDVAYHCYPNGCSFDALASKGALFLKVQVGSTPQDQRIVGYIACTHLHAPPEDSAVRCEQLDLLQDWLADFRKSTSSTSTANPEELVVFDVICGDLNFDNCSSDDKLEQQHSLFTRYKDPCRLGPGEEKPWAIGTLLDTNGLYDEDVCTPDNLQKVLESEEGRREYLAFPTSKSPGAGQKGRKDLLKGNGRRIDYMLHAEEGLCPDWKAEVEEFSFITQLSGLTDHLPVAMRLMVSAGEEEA

[2] = tested on: C9-ALS/FTD iMNs; test: Exosome secretion from iMNs; type: cell-based, human; conditions: apilimod+GW4869
Text: (A) Western blot of TSG101, TDP-43, and Neurofilament heavy chain levels in the exosome fraction secreted from control or C9-ALS/FTD iMNs upon apilimod treatment. […] Kruskal-Wallis test for B, C. N=3 biological replicates per condition, one line per genotype. (D) Number of poly(GR)-GFP+ exosomes secreted from iMNs expressing exogenous poly(GR)-GFP upon DMSO or apilimod treatment. N=4 biological replicates. Exosomes were labeled with CFSE-red dye to enable detection by FACS. Unpaired t-test.
Blocking PIKFYVE activity induces secretory autophagy. […] Thus, secretory autophagy maintains proteostasis and prevents neuronal death in TDP-43 mouse models. PIKFYVE inhibition blocks autophagosome-lysosome fusion by […] their ratio in endosomal, lysosomal and autophagosomal membranes. One might expect this to be detrimental to ALS iMNs, which can degenerate due to misfolded protein accumulation. However, inhibition of autophagosome-lysosome fusion using PIKFYVE inhibition or bafilomycin can activate secretory autophagy to jettison misfolded proteins from cells. […] To test this hypothesis, exosomal release in human iMNs upon PIKFYVE inhibition was examined. […] Thus, PIKFYVE inhibition induces the secretion of TDP-43 and C9ORF72 DPRs from iMNs.
Determining if PIKFYVE suppression rescues neurodegeneration through secretory autophagy. […] ASOs were designed targeting […]. It was confirmed that the ASOs suppressed RAB27A expression in iMNs.

[3] = tested on: C9ORF72 FTD iNs; test: Survival of C9ORF72 FTD iNs; type: cell-based, human; conditions: Apilimod+GW4869 (exocytosis blocker)
Text: (A) Survival of C9ORF72 iNs with DMSO or apilimod. Log-rank test, 100 iNs per group. […] Log-rank test, 100 iNs per group. […] Mean+/−s.e.m. Kruskal-Wallis Test.
(A, B) Survival of C9-FTD iNs treated with DMSO and Apilimod (A) or Apilimod+GW4869 (exocytosis blocker) (B). Log-rank test. 100 iNs per group. iNs quantified from 3 independent replicates per group.
Mutations in MAPT cause FTD with tau aggregates. To determine if iNs from FTD patients display neurodegenerative phenotypes, an established method to generate cortical neurons from iPSCs by forced expression of NGN2 was used. 3 FTD patient iPSC lines harboring a MAPTV337M mutation and their CRISPR-edited isogenic controls from a published cell bank were utilized. Neurons from MAPT-mutant iPSCs display increased phosphorylated and oligomeric tau, similar to post-mortem patient tissue (FIG. 18A). […] Thus, MAPT iNs display key features of FTD with tau pathology.
Thus, C9ORF72 iNs provide a robust model of FTD.
(§1) PIKFYVE inhibition rescues neurodegeneration through secretory autophagy.

[4] = tested on: TARDBP mice; test: Motor deficits in TDP-43 (TARDBP) mice; type: in vivo
Text: (A) Gait impairment, (B) Kyphosis, and (C) Tremor scoring in wild-type (WT) and TDP-43 homozygous mice treated with a negative control (NC) ASO or Pikfyve ASO at P0. Fore each assay, a score of 0 indicates no phenotype and 4 indicates the most severe phenotype.
To determine if ASO-mediated PIKFYVE suppression can rescue neurodegeneration in mouse models of ALS, two mouse models—a C9ORF72 model based on adeno-associated virus (AAV)-mediated overexpression of poly(GR) and a TDP-43 mouse mode were established. Both models develop neurodegeneration, motor impairment, and paralysis. […]

[5] = tested on: C9-FTD iNs; test: Exosome secretion from iNs; type: cell-based, human; conditions: apilimod+GW4869
Text: (A) […] of exosomes from apilimod-treated C9-FTD iNs. (B) Western blot of TSG101, TDP-43, and Neurofilament heavy chain levels in the exosome fraction secreted from control or C9-FTD iNs upon apilimod treatment. (C,D) Quantification of the exosome marker TSG101 (C) or TDP-43 (D) in the exosome fraction of control and C9-FTD iNs treated with DMSO, apilimod, or apilimod+GW4869. Kruskal-Wallis test for B, C. N=3 biological replicates per condition, one line per genotype. (E) Number of poly(GR)-GFP+ exosomes secreted from iNs expressing exogenous poly(GR)-GFP upon DMSO or apilimod treatment. N=4 biological replicates. Exosomes were labeled with CFSE-red dye to enable detection by FACS. Unpaired t-test.
To test this, exosome release from iNs upon PIKFYVE inhibition was examined. […] Thus, PIKFYVE inhibition induces the secretion of TDP-43 and C9ORF72 DPRs from iNs
as §1

[6] = tested on: sporadic ALS iMNs; test: Survival of sporadic ALS iMNs
Text: (A) Survival of control (CTRL) and C9ORF72 ALS/FTD patient (C9-ALS) iMNs with a 12-hour pulse treatment of excess glutamate shown for each individual line separately. iMNs quantified from 3 independent iMN conversions per line. (B-D) Immunofluorescence analysis of total TDP-43 (B) and quantification of the ratio of nuclear to cytoplasmic TDP-43 in control, C9-ALS (C), or sporadic ALS (D) iMNs. MNs from 2 controls and 2 C9-ALS patients (C) or 4 sporadic ALS patients (D) were quantified. n=30 (controls), 30 (C9-ALS/FTD), or 36 (sporadic) iMNs per line per condition from 2 biologically independent iMN conversions of 2 control, 2 C9-ALS/FTD, or 4 sporadic ALS lines were quantified. Each gray circle represents a single iMN. Median±interquartile range. Unpaired Mann-Whitney test. Scale bars: 5 μm. Dotted lines outline the nucleus and cell body. (E) Survival of control and sporadic iMNs with glutamate treatment. iMNs quantified from 3 independent iMN conversions per line. For iMN survival experiments, significance was measured by 2-sided log-rank test using the entire survival time course.
(B) Survival of C9-ALS/FTD iMNs with DMSO or apilimod. (C) Survival of sporadic ALS induced motor neurons (iMNs) with DMSO or apilimod. (D) Survival of C9-ALS/FTD iMNs with a scrambled ASO or PIKFYVE ASOs, 100 iMNs per group. […] Unpaired t-test. iMN survival experiments analyzed by log-rank test. […]

[7] = tested on: Pikfyve; test: Pikfyve qRT-PCR of whole brain after intracerebroventricular ASO; type: in vivo, mice; conditions: intracerebroventricular ASO injection at P0/P1, brain at P7
Procedure: (§2) (A) Mass spectrometry analysis of Optineurin (OPTN) levels in the cerebrospinal fluide (CSF) of mice 2 hours after direct intracerebroventral injection of a vehicle control or apilimod. n=3 mice per group. The ratio of Optineurin in the CSF of apilimod:vehicle-injected mice is shown. (B) Poly(GR)+ DPR punctae in wild-type or C9ORF72 mice treated with intracerebroventricular injection of apilimod for 48 hours. Mean+/−s.e.m. Data points are individual neurons taken across 3 mice per group. One-way ANOVA. […] Unpaired t-test. (D) Pikfyve qRT-PCR of whole brain. n=3 mice per group at postnatal day 7. Unpaired t-test. (E) Gait impairment scoring in wild-type (WT) and TDP-43 homozygous mice treated with a negative control (NC) ASO or Pikfyve ASO at postnatal day 1. Mean+/−s.e.m. Unpaired t-test at each time point between the negative control and Pikfyve ASO conditions for TDP-43 mice. A score of 0 indicates no phenotype and 4 indicates the most severe phenotype. (F) Vehicle or GW4869 were delivered by intraperitoneal injection every 48 h starting from day 6 in negative control and Pikfyve ASO-treated mice. Mean+/−s.e.m. One-way ANOVA at each time point between the four conditions. *p<0.05, **p<0.01, ***p<0.001, ****p<0.0001.
(A) Gait impairment, (B) Kyphosis, and (C) Tremor scoring in wild-type (WT) and TDP-43 homozygous mice treated with a negative control (NC) ASO or Pikfyve ASO at P0. […]

[8] = tested on: C9ORF72 dipeptide repeat proteins; test: DPR levels in C9ORF72-BAC mice; type: in vivo; conditions: ASO injected into hippocampus, 7 days (12 days in FIG. 8-10)
Procedure: DRP aggregates (Poly(GR) red) accumulate in the cells (white outline) of C9-BAC mice.
as §2
PIKFYVE inhibition rescues neurodegeneration in vivo. […] Since TARDBP overexpressing mice show motor deficits and neurodegeneration, we used TARDBP mice to test the efficacy of Pikfyve suppression.
(§3) Determining whether PIKfyve-targeting ASOs can reverse ALS disease progression in vivo. To determine if PIKfyve-targeting ASOs can reverse ALS disease processes in vivo, can PIKfyve ASOs lower levels of C9ORF72 dipeptide repeat proteins in mice. Dipeptide repeat proteins are generated from the C9ORF72 repeat expansion by repeat-associated non-AUG-dependent translation and are neurotoxic.
(§4) To determine if ASO-mediated Pikfyve suppression lowers C9ORF72 poly(GR) levels in mice, Pikfyve ASOs were injected into the hippocampus of adult C9ORF72-BAC mice, which harbor a C9ORF72 repeat expanded transgene and accumulate poly(GR)+ aggregates in hippocampal neurons.

[9] = tested on: TDP-43 mutant mice; test: TDP-43 pathology, neurodegeneration and survival in TDP-43 mice; type: in vivo
Text: (A, B) Images (A) and quantification (B) of phosphorylated TDP-43 (pTDP43)+ punctae in spinal motor neurons of day 21 wild-type or TDP-43 mutant mice treated with a negative control (NC ASO) or Pikfyve ASO. Each data point represents one mouse, mean+/−s.e.m., one-way ANOVA. In (A), each arrow marks a pTDP-43+ puncta. […] (C, D) Images (C) and quantification (D) of nuclear and cytoplasmic TDP-43 intensity in spinal motor neurons of day 21 wild-type or TDP-43 mutant mice treated with a negative control (NC ASO) or Pikfyve ASO. Each data point represents one mouse, mean+/−s.e.m., one-way ANOVA. […] (E, F) Images (E) and quantification (F) of the average number of Neurotrace (Nissl)+ spinal motor neurons per ventral horn per mouse. Each data point represents one mouse, mean, one-way ANOVA. In (E), orange dotted lines outline the ventral horn area quantified and white dotted lines outline the spinal cord. (G) Survival of TDP-43 mutant mice treated with a negative control (NC ASO) or Pikfyve ASO. Log-rank test. *p<0.05, **p<0.01, ***p<0.001, ****p<0.0001.

[10] = tested on: Pikfyve; test: Pikfyve expression in hippocampus after ASO injection; type: in vivo, mice; conditions: direct ASO injection into hippocampus, 7 days
Text: as §3, §4

In the case of `O=C(/C=C/c1ccc(/C=C/C(=O)Nc2ccc(C3=NCCN3)cc2)cc1)Nc1ccc(C2=NCCN2)cc1` [GW4869], the TDP-43 mouse survival [1] is given as “decreased TDP-43 mouse survival”, the neurodegeneration [1] is given as “accelerated neurodegeneration” and the “neuronal cytoplasmic TDP-43 aggregates” value [1] is given as “increased neuronal accumulation of cytoplasmic TDP-43 aggregates”. The “apilimod-induced release of exosomes containing TSG101 and TDP-43 from ALS iMNs with GW4869” value [2] was “blocked apilimod-induced release of exosomes”, the “apilimod rescue of C9ORF72 iN survival in presence of GW4869” value [3] was “blocked apilimod's ability to rescue” and the “motor rescue by PIKFYVE ASOs in presence of GW4869” value ([4]; GW4869 intraperitoneal every 48 h from day 6) was “blocked motor rescue by PIKFYVE ASOs”. The “apilimod-induced release of exosomes from C9ORF72 iNs with GW4869” value [5] was “impaired apilimod-induced release of exosomes”.
In the case of `Nc1ccc(C(=O)Nc2cccc(-c3nc(N4CCOCC4)c4oc5ncccc5c4n3)c2)cn1` [YM201636], the “sporadic ALS iMN survival” value [6] is reported as “rescued C9ORF72 and sporadic ALS”.
For “GGTGCATGCTCGGAGGTCTC (chemistry not given here) [Pikfyve ASO, mouse Pikfyve ASO gapmer for in vivo experiments, 5-10-5 2′-MOE, phosphorothioate]”, the “Pikfyve mRNA levels (whole brain qRT-PCR)” value [7] was “reduced Pikfyve mRNA levels”, the “Pikfyve mRNA levels (whole brain qRT-PCR)” value ([7]; listed as Pikfyve-targeting ASO) was “significantly decreased Pikfyve expression” and the “DPR / poly(GR)+ aggregates in hippocampus of C9ORF72-BAC mice” value (shortened to “DPR / poly(GR)+ aggregates”) [8] was “significantly reduced; also recorded: significantly less DRP aggregates”. The “DPR / poly(GR)+ aggregates” value ([8]; listed as PIKfyve ASO) was “significantly lowered”, the “DPR / poly(GR)+ aggregates” value ([8]; listed as Pikfyve-suppressing ASO) was “also lowered DPRs” and the “motor deficits in TARDBP mice” value ([4]; intracerebroventricular injection of Pikfyve ASO) was “rescued motor deficits”. The “survival of TDP-43 mutant mice” value ([9]; NC ASO vs Pikfyve ASO) was “rescues”, the “neurodegeneration in TDP-43 mice” value ([9]; Nissl+ spinal motor neurons per ventral horn) was “rescues” and the “TDP-43 pathology in TDP-43 mice” value ([9]; spinal motor neurons, day 21, NC ASO vs Pikfyve ASO) was “rescues”. The “Pikfyve expression in hippocampus” value [10] was “significantly reduced” and the “Pikfyve expression in hippocampus” value ([10]; listed as PIKfyve ASO) was “significantly lowered”.
